From patent US11304944B2, “MetAP2 inhibitors and methods of treating obesity” (SynDevRx, Inc., priority 2013, dated 2022)
Blank lines part the entries; values can stand above or below the molecule they belong to.

Key:
[1] = every fourth day schedule; due to confusion and insomnia; cited from earlier work
[2] = tested on: DIO Levin rats; experiment: Oral Glucose Tolerance Test (OGTT) Day 48 and HOMA-ir in DIO Levin rats; format: in vivo; conditions: for Blood Glucose, Time 15 / Blood Glucose, Time 30 / Blood Glucose, Time 60 / Blood Glucose, Time 90 / Blood Glucose, Time 120: OGTT; for BW: at OGTT;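 as to Blood Glucose pre-OGTT: blood glucose in mg/dL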;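 as to Blood Glucose, Time 120: blood glucose in mg/dL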;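 as to Blood Glucose, Time 15: blood glucose in mg/dL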;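 as to Blood Glucose, Time 30: blood glucose in mg/dL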;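 as to Blood Glucose, Time 60: blood glucose in mg/dL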;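 as to Blood Glucose, Time 90: blood glucose in mg/dL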
Experimental: (§1) Animals were weighed every other day. Food consumption was measured weekly. On an approximately weekly basis throughout the study, blood samples were taken for assessment of serum chemistries including glucose and insulin. On Day 48 all rats underwent a 4 hour fasted Oral Glucose Tolerance Test (OGTT). Animals were dosed orally (per os, PO) at 8 mL/kg 25% glucose (2 g/kg). On day 68, gross pathology was performed to determine body composition.

[3] = tested on: DIO Levin rats; experiment: In vivo testing DIO Levin rats: weight changes, food consumption, insulin, leptin levels; conditions: for Final BW: after 68 days, 60% fat diet
Experimental: CKD-732 as referred to herein is the hemitartrate salt of the following structure:
Test articles were administered subcutaneously on an every 4 day (q4d) schedule in a diet-induced obesity (DIO) Levin-DS rat model. […] A dietary intervention (Standard Chow, Labdiet 5001; 3.4 kcal/g) was included to compare to the drug interventions. Upon arrival at three weeks of age, the male rats received ad libitum pellets of Harlan Diet TD.06414, 60% of calories from fat, 21% of calories from carbohydrate; 5.1 kcal/g. Prior to dosing the rats were randomized into groups of three animals with an average body weight of 595 gm. […] Compound 1 in the form of the hemitartrate and CKD-732 in the form of the hemitartrate were dissolved in ethanol prior to dilution with vehicle. All doses were administered at a volume of 5.0 ml/kg. […] On day 1, first dose, the rats were 14 weeks of age. Also on day 1, Group 2 was switched from the high fat diet to a standard chow diet; the remaining groups were maintained on a high fat diet for the duration of the study.
as §1

[4] = tested on: DIO C57Bl/6 mice; experiment: In vivo testing DIO mice schedule-dose response: weight, food intake, ipGTT, HOMA-ir data
Experimental: Animals were dosed according to the schedule in Table 17 below.
Compound dosing occurred between 9 and 10 am on the day of dosing. Groups 6 and 7 received a total of 17 doses. The q4d groups (1, 2, 3, 4, 8, 9) received a total of 9 doses. The q8d group (5) received a total of 5 drug doses. Body weight and food intake were measured every other day. Blood glucose was measured on Day −7, Day 0, Day 7, Day 14, Day 21 and Day 28 at 9:00 am in fed state (BG measured before dose on dosing days). BG was measured by glucometer. An intraperitoneal glucose tolerance test (ipGTT, 6 h fasting) was performed.
The study was terminated on day 34. Liver and epididymal white adipose tissues (eWAT) were harvested, weighed and stored at −80° C. Sera was collected to determine: AST, ALT, ALP, CK, BUN, creatinine, calcium, potassium, sodium, chloride, total protein, albumin, total bilirubin, glucose, triglyceride and cholesterol. Insulin samples were measured using a commercial kit.

[5] = Plasma pharmacokinetics after single IV bolus in Sprague Dawley rats (LC/MS/MS, analyte Compound 1); format: in vivo; conditions: male, rat, Compound 1 30 mg/kg single IV bolus
Experimental: Blood samples were collected via saphenous vein puncture at 0, 0.25, 0.5, 1, 2, 4, 8, 24 and 48 hours.

SMILES: COC1C(OC(=O)/C=C/c2ccc(OCCN(C)C)cc2)CC[C@]2(CO2)C1[C@@]1(C)O[C@@H]1CC=C(C)C (stereo partly shown) [CKD-732, reference compound]
MTD [1]: 15 mg/m2/day
Blood Glucose pre-OGTT ([2]; 1.15 mg/kg q4d sc): 123 mg/dL
HOMA-ir (Insulin Sensitivity) 15 min ([2]; 1.15 mg/kg q4d sc): 49.0
HOMA-ir (Insulin Sensitivity) 30 min ([2]; 1.15 mg/kg q4d sc): 35.9
HOMA-ir (Insulin Sensitivity) Pre-dose ([2]; 1.15 mg/kg q4d sc): 13.6
Blood Glucose, Time 15 ([2]; 1.15 mg/kg q4d sc): 174 mg/dL
Blood Glucose, Time 30 ([2]; 1.15 mg/kg q4d sc): 171 mg/dL
Blood Glucose, Time 60 ([2]; 1.15 mg/kg q4d sc): 158 mg/dL
Blood Glucose, Time 90 ([2]; 1.15 mg/kg q4d sc): 153 mg/dL
Blood Glucose, Time 120 ([2]; 1.15 mg/kg q4d sc): 144 mg/dL
BW ([2]; 1.15 mg/kg q4d sc): 686 g
lower body weight than vehicle ([3]; 1.15 mg/kg Q4D): 3.2%
Avg. Insulin Day 7 ([3]; 1.15 mg/kg q4d sc): 2.08 ng/mL
Avg. Insulin Day 15 ([3]; 1.15 mg/kg q4d sc): 1.91 ng/mL
Avg. Insulin Day 23 ([3]; 1.15 mg/kg q4d sc): 1.60 ng/mL
Avg. Insulin Day 48 ([3]; 1.15 mg/kg q4d sc): 1.56 ng/mL
Avg. Insulin Pre-dosing ([3]; 1.15 mg/kg q4d sc): 2.58 ng/mL
Group Average Food Consumption Day 1-8 ([3]; 1.15 mg/kg q4d sc): 131.8 g
Group Average Food Consumption Day 9-15 ([3]; 1.15 mg/kg q4d sc): 110.5 g
Group Average Food Consumption Day 16-23 ([3]; 1.15 mg/kg q4d sc): 108.7 g
Group Average Food Consumption Day 24-30 ([3]; 1.15 mg/kg q4d sc): 133.9 g
Group Average Food Consumption Day 31-36 ([3]; 1.15 mg/kg q4d sc): 153.9 g
Group Average Food Consumption Day 37-43 ([3]; 1.15 mg/kg q4d sc): 148.7 g
Group Average Food Consumption Day 44-50 ([3]; 1.15 mg/kg q4d sc): 112.3 g
Group Average Food Consumption Day 51-57 ([3]; 1.15 mg/kg q4d sc): 135.0 g
Group Average Food Consumption Day 58-63 ([3]; 1.15 mg/kg q4d sc): 125.5 g
Group Average Food Consumption Day 63-68 ([3]; 1.15 mg/kg q4d sc): 61.9 g
Leptin Levels Day 29 ([3]; 1.15 mg/kg q4d sc): 4.30
Leptin Levels Pre-dose ([3]; 1.15 mg/kg q4d sc): 4.43
Leptin Levels, Day 29, % Change from Baseline ([3]; 1.15 mg/kg q4d sc): −3.0%
Final BW ([3]; 1.15 mg/kg q4d sc): 714.0 g
Glucose, ipGTT 0 min ([4]; 1 mg/kg Q2D): 161.3 mg/dL
Glucose, ipGTT 15 min ([4]; 1 mg/kg Q2D): 469.2 mg/dL
Insulin, ipGTT 0 min ([4]; 1 mg/kg Q2D): 54.8 uU/ml
Insulin, ipGTT 15 min ([4]; 1 mg/kg Q2D): 89.3 uU/ml
Glucose, ipGTT 0 min ([4]; 2 mg/kg q4d): 182.6 mg/dL
Glucose, ipGTT 15 min ([4]; 2 mg/kg q4d): 498.6 mg/dL
Insulin, ipGTT 0 min ([4]; 2 mg/kg q4d): 99.8 uU/ml
Insulin, ipGTT 15 min ([4]; 2 mg/kg q4d): 118.3 uU/ml
response (weight loss) by schedule ([4]; Q2D (QOD) schedule versus Q4D, FIG. 20): better response than the same average daily dose administered on a Q4D schedule

Cmax [5]: ~15 µM
half-life [5]: 10 to 15 min
SMILES: COC1C(OC(=O)N[C@H]2CC[C@H](N)CC2)CC[C@]2(CO2)C1[C@@]1(C)O[C@@H]1CC=C(C)C (stereo partly drawn) [Compound 1, Fumagill-6-yl [trans-(4-aminocyclohexyl)]carbamate]
Blood Glucose pre-OGTT ([2]; 1 mg/kg q4d sc): 124 mg/dL
HOMA-ir (Insulin Sensitivity) 15 min ([2]; 1 mg/kg q4d sc): 42.7
HOMA-ir (Insulin Sensitivity) 30 min ([2]; 1 mg/kg q4d sc): 21.1
HOMA-ir (Insulin Sensitivity) Pre-dose ([2]; 1 mg/kg q4d sc): 15.4
Blood Glucose, Time 15 ([2]; 1 mg/kg q4d sc): 156 mg/dL
Blood Glucose, Time 30 ([2]; 1 mg/kg q4d sc): 142 mg/dL
Blood Glucose, Time 60 ([2]; 1 mg/kg q4d sc): 152 mg/dL
Blood Glucose, Time 90 ([2]; 1 mg/kg q4d sc): 151 mg/dL
Blood Glucose, Time 120 ([2]; 1 mg/kg q4d sc): 142 mg/dL
BW ([2]; 1 mg/kg q4d sc): 686 g
Blood Glucose pre-OGTT ([2]; 3 mg/kg q4d sc): 123 mg/dL
HOMA-ir (Insulin Sensitivity) 15 min ([2]; 3 mg/kg q4d sc): 29.2
HOMA-ir (Insulin Sensitivity) 30 min ([2]; 3 mg/kg q4d sc): 9.5
HOMA-ir (Insulin Sensitivity) Pre-dose ([2]; 3 mg/kg q4d sc): 12.2
Blood Glucose, Time 15 ([2]; 3 mg/kg q4d sc): 175 mg/dL
Blood Glucose, Time 30 ([2]; 3 mg/kg q4d sc): 171 mg/dL
Blood Glucose, Time 60 ([2]; 3 mg/kg q4d sc): 149 mg/dL
Blood Glucose, Time 90 ([2]; 3 mg/kg q4d sc): 147 mg/dL
Blood Glucose, Time 120 ([2]; 3 mg/kg q4d sc): 129 mg/dL
BW ([2]; 3 mg/kg q4d sc): 668 g
lower body weight than vehicle ([3]; 1 mg/kg Q4D): 3.9%
Avg. Insulin Day 7 ([3]; 1 mg/kg q4d sc): 1.83 ng/mL
Avg. Insulin Day 15 ([3]; 1 mg/kg q4d sc): 1.39 ng/mL
Avg. Insulin Day 23 ([3]; 1 mg/kg q4d sc): 1.20 ng/mL
Avg. Insulin Day 48 ([3]; 1 mg/kg q4d sc): 1.75 ng/mL
Avg. Insulin Pre-dosing ([3]; 1 mg/kg q4d sc): 1.92 ng/mL
Group Average Food Consumption Day 1-8 ([3]; 1 mg/kg q4d sc): 128.6 g
Group Average Food Consumption Day 9-15 ([3]; 1 mg/kg q4d sc): 109.3 g
Group Average Food Consumption Day 16-23 ([3]; 1 mg/kg q4d sc): 121.1 g
Group Average Food Consumption Day 24-30 ([3]; 1 mg/kg q4d sc): 145.9 g
Group Average Food Consumption Day 31-36 ([3]; 1 mg/kg q4d sc): 144.6 g
Group Average Food Consumption Day 37-43 ([3]; 1 mg/kg q4d sc): 141.7 g
Group Average Food Consumption Day 44-50 ([3]; 1 mg/kg q4d sc): 122.4 g
Group Average Food Consumption Day 51-57 ([3]; 1 mg/kg q4d sc): 147.7 g
Group Average Food Consumption Day 58-63 ([3]; 1 mg/kg q4d sc): 140.7 g
Group Average Food Consumption Day 63-68 ([3]; 1 mg/kg q4d sc): 55.1 g
Leptin Levels Day 29 ([3]; 1 mg/kg q4d sc): 2.47
Leptin Levels Pre-dose ([3]; 1 mg/kg q4d sc): 2.50
Leptin Levels, Day 29, % Change from Baseline ([3]; 1 mg/kg q4d sc): −1.3%
Final BW ([3]; 1.0 mg/kg q4d sc): 717.3 g
lower body weight than the vehicle control ([3]; 3 mg/kg Q4D, end of the study): 8.9%
Avg. Insulin Day 7 ([3]; 3 mg/kg q4d sc): 1.35 ng/mL
Avg. Insulin Day 15 ([3]; 3 mg/kg q4d sc): 1.68 ng/mL
Avg. Insulin Day 23 ([3]; 3 mg/kg q4d sc): 1.27 ng/mL
Avg. Insulin Day 48 ([3]; 3 mg/kg q4d sc): 1.40 ng/mL
Avg. Insulin Pre-dosing ([3]; 3 mg/kg q4d sc): 2.10 ng/mL
Group Average Food Consumption Day 1-8 ([3]; 3 mg/kg q4d sc): 123.6 g
Group Average Food Consumption Day 9-15 ([3]; 3 mg/kg q4d sc): 98.9 g
Group Average Food Consumption Day 16-23 ([3]; 3 mg/kg q4d sc): 110.1 g
Group Average Food Consumption Day 24-30 ([3]; 3 mg/kg q4d sc): 149.3 g
Group Average Food Consumption Day 31-36 ([3]; 3 mg/kg q4d sc): 138.8 g
Group Average Food Consumption Day 37-43 ([3]; 3 mg/kg q4d sc): 130.9 g
Group Average Food Consumption Day 44-50 ([3]; 3 mg/kg q4d sc): 94.7 g
Group Average Food Consumption Day 51-57 ([3]; 3 mg/kg q4d sc): 116.2 g
Group Average Food Consumption Day 58-63 ([3]; 3 mg/kg q4d sc): 124.9 g
Group Average Food Consumption Day 63-68 ([3]; 3 mg/kg q4d sc): 49.8 g
Leptin Levels Day 29 ([3]; 3 mg/kg q4d sc): 3.60
Leptin Levels Pre-dose ([3]; 3 mg/kg q4d sc): 3.23
Leptin Levels, Day 29, % Change from Baseline ([3]; 3 mg/kg q4d sc): 11.33%
Final BW ([3]; 3.0 mg/kg q4d sc): 684.0 g
reduction in leptin levels ([3]; serum leptin day 29): did not result in significant reductions in leptin levels
